Results taken from patent publication US9868746B2, “Substituted 5-aminothieno[2,3-C]pyridazine-6-carboxamide analogs as positive allosteric modulators of the muscarinic acetylcholine receptor M4” (Vanderbilt University, priority 2012, dated 2018).
Like-named read-outs stand apart in the source and are kept apart here.

Target: T1, mAChR M4 (Homo sapiens, UniProt P08173)
T1 construct: expressed in transfected cells; host or cells: CHO-K1 cells stably transfected with M4 cDNA and chimeric G-protein Gqi5
T1 sequence (P08173 1-479): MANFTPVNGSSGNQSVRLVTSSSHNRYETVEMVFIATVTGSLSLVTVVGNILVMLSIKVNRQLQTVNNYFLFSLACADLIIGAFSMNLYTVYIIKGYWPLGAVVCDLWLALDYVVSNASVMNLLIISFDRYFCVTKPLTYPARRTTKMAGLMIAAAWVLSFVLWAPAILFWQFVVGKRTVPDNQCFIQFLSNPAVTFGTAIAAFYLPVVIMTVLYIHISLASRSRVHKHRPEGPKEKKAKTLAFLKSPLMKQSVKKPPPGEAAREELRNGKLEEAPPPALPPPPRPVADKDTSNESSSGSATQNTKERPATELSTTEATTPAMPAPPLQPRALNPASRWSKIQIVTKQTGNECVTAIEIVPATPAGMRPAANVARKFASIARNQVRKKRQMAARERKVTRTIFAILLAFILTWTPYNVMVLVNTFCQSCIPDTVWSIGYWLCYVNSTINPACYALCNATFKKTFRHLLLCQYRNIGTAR
Test: mAChR M4 cell-based functional assay (calcium mobilization, potentiation of EC20 acetylcholine response)
Conditions: for Emax at 30 µM: % ACh maximum at 30 μM

[1] = mAChR M4 cell-based functional assay, >10,000 estimated for low potency compounds without plateau, read-out: EC50

Row | Compound | Emax at 30 µM | EC50 [1] | EC50 (EC50 (nM))
1 | Cc1nnc2sc(C(=O)N3CC(F)(c4cccc(F)c4)C3)c(N)c2c1C [Example B293] | 46% | 150 nM | 
2 | Cc1nnc2sc(C(=O)NC3CN(c4nc5ccccc5s4)C3)c(N)c2c1C [Example B422] | 73% | 17 nM | 
3 | Cc1ccc(S(=O)(=O)N2CCC(NC(=O)c3sc4nnc(C)c(C)c4c3N)C2)s1 (centres unmarked) [Example B215] | 75% | 340 nM | 
4 | Cc1nnc2sc(C(=O)N3CCC(c4ccccc4)CC3)c(N)c2c1C [Example B115] | 38% | 3900 nM | 
5 | Cc1nnc2sc(C(=O)NC3CC3c3ccc(S(C)(=O)=O)cc3)c(N)c2c1C (centres unmarked) [Example B109] | 78% | 120 nM | 
6 | COC(=O)N1CC(NC(=O)c2sc3nnc(C)c(C)c3c2N)C1 [Example B153] | 83% | 230 nM | 
7 | Cc1nnc2sc(C(=O)NCc3ccc(OC(F)F)nc3)c(N)c2c1C [Example B412] | 85% | 67 nM | 
8 | Cc1nnc2sc(C(=O)NCc3ccc(-c4cccnc4)cc3)c(N)c2c1C [Example B464] | 63% | 11 nM | 
9 | Cc1nnc2sc(C(=O)NCc3cccc(F)c3F)c(N)c2c1C [Example B15] | 97% | 100 nM | 
10 | [2H]C([2H])(NC(=O)c1sc2nnc(C)c(C)c2c1N)c1ccc(OC)cc1 [Example B37] | 68% | 32 nM | 
11 | Cc1nnc2sc(C(=O)NC3CN(C(=O)c4ccc(F)cc4F)C3)c(N)c2c1C [Example B391] | 88% | 300 nM | 
12 | Cc1nnc2sc(C(=O)N3CC(F)(c4cccc(-c5cnn(C)c5)c4)C3)c(N)c2c1C [Example B325] | 62% | 590 nM | 
13 | Cc1nnc2sc(C(=O)N3CC(NC(=O)OCc4ccccc4)C3)c(N)c2c1C [Example B190] | 53% | 560 nM | 
14 | COc1cccc(S(=O)(=O)C2CN(C(=O)c3sc4nnc(C)c(C)c4c3N)C2)c1 [Example B433] | 34% | 590 nM | 
15 | Cc1nnc2sc(C(=O)NC3CN(C(=O)C4CCC4)C3)c(N)c2c1C [Example B122] | 88% | 180 nM | 
16 | Cc1nnc2sc(C(=O)NC3CN(c4cccnc4)C3)c(N)c2c1C [Example B479] | 67% | 12 nM | 
17 | CCOC(=O)N1CC2CN(C(=O)c3sc4nnc(C)c(C)c4c3N)CC2C1 (centres unmarked) [Example B285] | 73% | 2500 nM | 
18 | Cc1nnc2sc(C(=O)NCc3ccc(C(F)F)nc3)c(N)c2c1C [Example B420] | 71% | 270 nM | 
19 | Cc1nnc2sc(C(=O)N3CC4CN(C(=O)c5ccc(F)cc5)CC4C3)c(N)c2c1C (centres unmarked) [Example B331] | 58% | 3600 nM | 
20 | Cc1nnc2sc(C(=O)NC3CCN(c4ccccc4)C3)c(N)c2c1C (centres unmarked) [Example B113] | 66% | 24 nM | 
21 | Cc1nnc2sc(C(=O)N3CC(O)(c4ccccc4)C3)c(N)c2c1C [Example B179] | 33% | 920 nM | 
22 | Cc1nnc2sc(C(=O)NCc3ccc(CN4CCCCC4)cc3)c(N)c2c1C [Example B504] | 68% | 80 nM | 

Row | Compound | Emax at 30 µM | EC50 [1] | EC50 (EC50 (nM))
23 | Cc1nnc2sc(C(=O)NC3CCN(S(C)(=O)=O)C3)c(N)c2c1C (centres unmarked) [Example B252] | 83% | 1700 nM | 
24 | Cc1nnc2sc(C(=O)Nc3nccs3)c(N)c2c1C [Example B70] | 37% | 1200 nM | 
25 | Nc1c(C(=O)NCc2ccc3c(c2)OCCO3)sc2nnc3c(c12)CCCC3 [Example B56] | 54% | 72 nM | 
26 | Cc1nnc2sc(C(=O)NCc3ccc(S(C)(=O)=O)cc3)c(N)c2c1C [Example B23] | 83% | 450 nM | 
27 | Cc1nnc2sc(C(=O)NCc3ccc(S(=O)(=O)C(F)F)c(Cl)c3)c(N)c2c1C [Example B489] | 73% | 35 nM | 
28 | Nc1c(C(=O)NCc2ccc3c(c2)OCO3)sc2nnc3c(c12)CCCC3 [Example B50] | 49% | 61 nM | 
29 | [2H]C([2H])(NC(=O)c1sc2nnc(C)c(C)c2c1N)c1ccc(S(=O)(=O)C(F)F)cc1 [Example B477] | 74% | 23 nM | 
30 | Cc1nnc2sc(C(=O)NC3CN(C(=O)Oc4ccc(C(F)(F)F)cc4)C3)c(N)c2c1C [Example B356] | 61% | 25 nM | 
31 | Cc1nnc2sc(C(=O)NC3CCN(c4ccccc4C(F)(F)F)C3)c(N)c2c1C (centres unmarked) [Example B284] | 71% | 150 nM | 
32 | Cc1nnc2sc(C(=O)N3CCC(NC(=O)C4CCCCC4)C3)c(N)c2c1C (centres unmarked) [Example B237] | 62% | 3400 nM | 
33 | COCCOc1ccc(CNC(=O)c2sc3nnc(C)c(C)c3c2N)cc1 [Example B233] | 78% | 99 nM | 
34 | Cc1nnc2sc(C(=O)N3CCC(NC(=O)CCc4ccccc4)C3)c(N)c2c1C (centres unmarked) [Example B249] | 48% | > 10000 nM | 
35 | COc1cccc(C2(F)CN(C(=O)c3sc4nnc(C)c(C)c4c3N)C2)c1 [Example B300] | 52% | 330 nM | 
36 | Cc1nnc2sc(C(=O)N3CC4CN(C(=O)C5CCC5)CC4C3)c(N)c2c1C (centres unmarked) [Example B385] | 55% | 2600 nM | 
37 | Cc1nnc2sc(C(=O)NCc3ccc(S(=O)(=O)CF)cc3)c(N)c2c1C [Example B132] | 66% | 19 nM | 
38 | CCCCCC(=O)N1CC(NC(=O)c2sc3nnc(C)c(C)c3c2N)C1 [Example B152] | 85% | 110 nM | 
39 | Cc1ccccc1N1CCC(NC(=O)c2sc3nnc(C)c(C)c3c2N)C1 (centres unmarked) [Example B269] | 68% | 110 nM | 
40 | Cc1nnc2sc(C(=O)NCc3ccncc3)c(N)c2c1C [Example B14] | 100% | 320 nM | 
41 | Cc1nnc2sc(C(=O)NC3CN(S(=O)(=O)c4cn(C)cn4)C3)c(N)c2c1C [Example B136] | 72% | 1000 nM | 
42 | Cc1nnc2sc(C(=O)NCc3ccc(-c4cc(F)nc(F)c4)cc3)c(N)c2c1C [Example B455] | 64% | 27 nM | 
43 | Cc1nnc2sc(C(=O)NCCN(C)S(=O)(=O)c3ccc(F)cc3)c(N)c2c1C [Example B358] | 49% | 4500 nM | 
44 | CCc1ccc(CNC(=O)c2sc3nnc(C)c(C)c3c2N)cc1 [Example B395] | 71% | 47 nM | 

Row | Compound | Emax at 30 µM | EC50 [1] | EC50 (EC50 (nM))
45 | Cc1nnc2sc(C(=O)NCc3cccc(S(C)(=O)=O)c3)c(N)c2c1C [Example B44] | 75% |  | 420 nM
46 | Cc1nnc2sc(C(=O)NC3CN(C(=O)Oc4ccccc4)C3)c(N)c2c1C [Example B151] | 57% | 9.5 nM | 
47 | Cc1nnc2sc(C(=O)N3CC4CN(c5cccc(Br)n5)CC4C3)c(N)c2c1C (centres unmarked) [Example B437] | 54% | 98 nM | 
48 | Cc1nnc2sc(C(=O)N3CCC(NS(C)(=O)=O)C3)c(N)c2c1C (centres unmarked) [Example B256] | 65% | > 10000 nM | 
49 | Cc1ccc(C(=O)NC2CCN(C(=O)c3sc4nnc(C)c(C)c4c3N)C2)cc1 (centres unmarked) [Example B225] | 62% | 1400 nM | 
50 | Cc1nnc2sc(C(=O)N3CC(F)(c4ccncc4)C3)c(N)c2c1C [Example B312] | 55% | 2800 nM | 
51 | Cc1nnc2sc(C(=O)NCc3ccc(-c4cncc5ccccc45)cc3)c(N)c2c1C [Example B503] | 56% | 1100 nM | 
52 | COc1cncc(NC(=O)c2sc3nnc(C)c(C)c3c2N)c1 [Example B72] | 30% | 380 nM | 
53 | COc1ncccc1-c1ccc(CNC(=O)c2sc3nnc(C)c(C)c3c2N)cc1 [Example B456] | 68% | 99 nM | 
54 | Cc1nnc2sc(C(=O)NCc3ccnc(C#N)c3)c(N)c2c1C [Example B467] | 69% | 1200 nM | 
55 | Cc1nnc2sc(C(=O)NC(C)(C)C)c(N)c2c1C [Example B68] | 68% | 2600 nM | 
56 | Cc1nnc2sc(C(=O)NC3CN(C(=O)c4ccc(F)cc4)C3)c(N)c2c1C [Example B155] | 91% | 93 nM | 
57 | Cc1nnc2sc(C(=O)NC3CCN(C(=O)C4CCC4)C3)c(N)c2c1C (centres unmarked) [Example B239] | 84% | 1200 nM | 
58 | Nc1c(C(=O)NCc2cccc(F)c2)sc2nnccc12 [Example B21] | 59% | > 10000 nM | 
59 | Cc1nnc2sc(C(=O)N3CC(NCc4cccnc4)C3)c(N)c2c1C [Example B62] | 34% | > 10000 nM | 
60 | Cc1nnc2sc(C(=O)N3CCC4(CN(C(=O)OC(C)(C)C)C4)C3)c(N)c2c1C [Example B194] | 30% | 4700 nM | 
61 | Cc1nnc2sc(C(=O)NCCN(C)S(=O)(=O)c3ccccc3)c(N)c2c1C [Example B375] | 51% | 4000 nM | 
62 | Cc1nnc2sc(C(=O)NC3CN(C(=O)Oc4ccc(Cl)cc4)C3)c(N)c2c1C [Example B355] | 58% | 16 nM | 
63 | COc1cccc(S(=O)(=O)NC2CCN(C(=O)c3sc4nnc(C)c(C)c4c3N)C2)c1 (centres unmarked) [Example B213] | 65% | 4500 nM | 
64 | Cc1nnc2sc(C(=O)NC3CCN(C(=O)c4ccc(F)cc4)C3)c(N)c2c1C (centres unmarked) [Example B219] | 77% | 350 nM | 
